Results from patent publication US20240101540A1, “TARGETED PROTEIN DEGRADATION OF PARP14 FOR USE IN THERAPY” (Ribon Therapeutics, Inc., priority 2022, published 2024).
Structures can show the parent of a compound that is named as a salt.

Target: T1, HiBiT tagged PARP14 (Homo sapiens, UniProt Q460N5)
T1 construct: engineered to contain a HiBiT tag on both alleles of the PARP14 gene; endogenous in cells; host or cells: Jurkat cells stably transfected with LgBiT (Promega), PARP14 locus edited by CRISPR/Cas9
Assay: HiBiT assay for the degradation of PARP14 (HiBiT tagged PARP14 in LgBiT expressing Jurkat cells, 2 or 24 hours)
Type: cell-based
Details: Assay B (Example B): HiBiT tagged PARP14 degradation in LgBiT expressing Jurkat cells, read-out: DC50
Summary of the method: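 Luminescence from HiBiT–LgBiT complementation served as proxy for endogenous PARP14 level in edited LgBiT Jurkat cells (5,000/well). After 2 or 24 h compound exposure at 37 °C, signal read with Live Cell Substrate, expressed as % of 0.1% DMSO control, and fitted (4-parameter, free Hill) for DC50.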

T1 sequence (Q460N5 whole entry): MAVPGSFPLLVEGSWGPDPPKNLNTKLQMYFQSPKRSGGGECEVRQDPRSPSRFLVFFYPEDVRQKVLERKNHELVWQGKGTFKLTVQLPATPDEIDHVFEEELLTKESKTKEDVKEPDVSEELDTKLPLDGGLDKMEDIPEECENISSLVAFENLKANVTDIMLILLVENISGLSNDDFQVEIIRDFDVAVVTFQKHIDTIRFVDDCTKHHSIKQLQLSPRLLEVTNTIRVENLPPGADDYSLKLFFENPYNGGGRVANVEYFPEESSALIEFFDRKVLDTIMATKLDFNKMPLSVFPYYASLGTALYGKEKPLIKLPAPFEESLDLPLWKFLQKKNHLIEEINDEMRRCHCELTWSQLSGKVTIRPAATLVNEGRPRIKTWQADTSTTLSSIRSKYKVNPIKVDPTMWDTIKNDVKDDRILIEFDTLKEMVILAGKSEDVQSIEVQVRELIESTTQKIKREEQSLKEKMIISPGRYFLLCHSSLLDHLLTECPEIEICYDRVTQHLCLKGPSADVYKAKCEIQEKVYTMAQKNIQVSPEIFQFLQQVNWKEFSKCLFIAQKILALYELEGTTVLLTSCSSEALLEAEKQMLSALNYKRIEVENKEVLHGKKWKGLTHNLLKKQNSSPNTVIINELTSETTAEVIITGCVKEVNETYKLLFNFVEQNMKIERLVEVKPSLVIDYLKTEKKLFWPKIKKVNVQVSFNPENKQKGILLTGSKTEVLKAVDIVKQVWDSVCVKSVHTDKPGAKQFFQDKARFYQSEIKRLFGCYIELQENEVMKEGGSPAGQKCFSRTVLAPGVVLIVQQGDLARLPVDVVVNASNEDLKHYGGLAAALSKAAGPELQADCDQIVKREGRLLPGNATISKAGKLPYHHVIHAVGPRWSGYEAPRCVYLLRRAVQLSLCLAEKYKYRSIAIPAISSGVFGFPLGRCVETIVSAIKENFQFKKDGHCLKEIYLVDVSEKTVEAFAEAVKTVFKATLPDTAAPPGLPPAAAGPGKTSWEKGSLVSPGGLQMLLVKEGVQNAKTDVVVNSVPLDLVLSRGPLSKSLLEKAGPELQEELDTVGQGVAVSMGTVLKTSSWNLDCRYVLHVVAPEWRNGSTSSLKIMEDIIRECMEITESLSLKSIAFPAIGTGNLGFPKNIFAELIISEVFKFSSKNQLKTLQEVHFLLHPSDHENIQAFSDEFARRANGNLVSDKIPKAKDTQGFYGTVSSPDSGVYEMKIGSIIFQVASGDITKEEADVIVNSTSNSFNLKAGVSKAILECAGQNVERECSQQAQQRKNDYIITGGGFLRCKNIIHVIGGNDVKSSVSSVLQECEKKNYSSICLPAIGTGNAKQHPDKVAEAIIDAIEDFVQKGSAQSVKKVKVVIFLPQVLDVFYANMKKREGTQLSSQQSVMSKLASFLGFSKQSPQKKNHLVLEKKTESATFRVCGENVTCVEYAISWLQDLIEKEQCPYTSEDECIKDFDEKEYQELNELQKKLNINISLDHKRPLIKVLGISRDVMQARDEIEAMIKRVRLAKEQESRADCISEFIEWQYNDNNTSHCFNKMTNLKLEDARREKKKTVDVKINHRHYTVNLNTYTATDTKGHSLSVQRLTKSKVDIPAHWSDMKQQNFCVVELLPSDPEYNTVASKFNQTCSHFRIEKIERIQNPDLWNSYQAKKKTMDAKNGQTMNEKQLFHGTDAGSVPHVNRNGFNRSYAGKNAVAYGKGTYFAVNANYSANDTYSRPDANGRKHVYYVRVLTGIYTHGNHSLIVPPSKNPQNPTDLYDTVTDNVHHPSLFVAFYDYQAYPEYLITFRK

DC50 [nM]	SMILES
< 30	Cn1nc(N2CCC(=O)NC2=O)c2cc(F)c(C3CCN(CCN4CCC(COc5cc(F)c6c(=O)[nH]c(COC7CCOCC7)nc6c5)CC4)CC3)cc21 [Example 198, 1-(5-fluoro-6-(1-(2-(4-(((5-fluoro-4-oxo-2-(((tetrahydro-2H-pyran-4-yl)oxy)methyl)-3,4-dihydroquinazolin-7-yl)oxy)methyl)piperidin-1-yl)ethyl)piperidin-4-yl)-1-methyl-1H-indazol-3-yl)dihydropyrimidine-2,4(1H,3H)-dione]
< 30	O=C1CCN(c2cnc3cc(C4CCN(CCN5CCC(COc6cc(F)c7c(=O)[nH]c(CSC8CCOCC8)nc7c6)CC5)CC4)ccn23)C(=O)N1 [Example 211, 1-(7-(1-(2-(4-(((5-fluoro-4-oxo-2-(((tetrahydro-2H-pyran-4-yl)thio)methyl)-3,4-dihydroquinazolin-7-yl)oxy)methyl)piperidin-1-yl)ethyl)piperidin-4-yl)imidazo[1,2-a]pyridin-3-yl)dihydropyrimidine-2,4(1H,3H)-dione]
< 30	O=C1CCC(Nc2ccc(N3CCC(CN4CCC(C#Cc5cc(F)c6c(=O)[nH]c(CSC7CCOCC7)nc6c5)CC4)CC3)c(F)c2)C(=O)N1 (centres unmarked) [Example 220, 3-((3-fluoro-4-(4-((4-((5-fluoro-4-oxo-2-(((tetrahydro-2H-pyran-4-yl)thio)methyl)-3,4-dihydroquinazolin-7-yl)ethynyl)piperidin-1-yl)methyl)piperidin-1-yl)phenyl)amino)piperidine-2,6-dione formate]
< 30	COc1cc(N2CCC(CN3CCC(COc4cc(F)c5c(=O)[nH]c(CSC6CCOCC6)nc5c4)CC3)CC2)c(F)cc1NC1CCC(=O)NC1=O (centres unmarked) [Example 229, 3-((5-fluoro-4-(4-((4-(((5-fluoro-4-oxo-2-(((tetrahydro-2H-pyran-4-yl)thio)methyl)-3,4-dihydroquinazolin-7-yl)oxy)methyl)piperidin-1-yl)methyl)piperidin-1-yl)-2-methoxyphenyl)amino)piperidine-2,6-dione]
< 30	O=C1CCC(N2C(=O)c3ccc(N4CCC(N5CC(N6CCC(COc7cc(F)c8c(=O)[nH]c(CSC9CCOCC9)nc8c7)CC6)C5)CC4)cc3C2=O)C(=O)N1 (centres unmarked) [Example 191, 2-(2,6-dioxopiperidin-3-yl)-5-(4-(3-(4-(((5-fluoro-4-oxo-2-(((tetrahydro-2H-pyran-4-yl)thio)methyl)-3,4-dihydroquinazolin-7-yl)oxy)methyl)piperidin-1-yl)azetidin-1-yl)piperidin-1-yl)isoindoline-1,3-dione]
< 30	Cn1nc(N2CCC(=O)NC2=O)c2ccc(C3CCN(CCN4CCC(COc5cc(F)c6c(=O)[nH]c(COC7CCOCC7)nc6c5)CC4)CC3)c(F)c21 [Example 205, 1-(7-fluoro-6-(1-(2-(4-(((5-fluoro-4-oxo-2-(((tetrahydro-2H-pyran-4-yl)oxy)methyl)-3,4-dihydroquinazolin-7-yl)oxy)methyl)piperidin-1-yl)ethyl)piperidin-4-yl)-1-methyl-1H-indazol-3-yl)dihydropyrimidine-2,4(1H,3H)-dione]

Further lines, the molecule ahead of its results:

SMILES	DC50 [nM]
O=C1CCC(Nc2ccc(N3CCC(C(=O)N4CCC(N5CCC(COc6cc(F)c7c(=O)[nH]c(COC8CCOCC8)nc7c6)CC5)CC4)CC3)c(F)c2)C(=O)N1 (centres unmarked) [Example 172, 3-((3-fluoro-4-(4-(4-(((5-fluoro-4-oxo-2-(((tetrahydro-2H-pyran-4-yl)oxy)methyl)-3,4-dihydroquinazolin-7-yl)oxy)methyl)-[1,4′-bipiperidine]-1′-carbonyl)piperidin-1-yl)phenyl)amino)piperidine-2,6-dione]	< 30
O=C1CCC(Nc2ccc(N3CC(N4CCC(N5CCC(COc6cc(F)c7c(=O)[nH]c(CSC8CCOCC8)nc7c6)CC5)CC4)C3)c(F)c2)C(=O)N1 (centres unmarked) [Example 145]	< 30
O=C1CCC(Nc2ccc(N3CC(N4CC(N5CCC(COc6cc(F)c7c(=O)[nH]c(CSC8CCOCC8)nc7c6)CC5)C4)C3)c(F)c2)C(=O)N1 (centres unmarked) [Example 148, 3-((3-fluoro-4-(3-(4-(((5-fluoro-4-oxo-2-(((tetrahydro-2H-pyran-4-yl)thio)methyl)-3,4-dihydroquinazolin-7-yl)oxy)methyl)piperidin-1-yl)-[1,3′-biazetidin]-1′-yl)phenyl)amino)piperidine-2,6-dione formate]	< 30
O=C1CCC(Nc2ccc(N3CCC(N4CCC(COc5cc(F)c6c(=O)[nH]c(COC7CCOCC7)nc6c5)CC4)CC3)cc2)C(=O)N1 (centres unmarked) [Example 115]	< 30
O=C1CCC(Nc2ccc(N3CCN(C(=O)CN4CCC(COc5cc(F)c6c(=O)[nH]c(CSC7CCOCC7)nc6c5)CC4)CC3)c(F)c2)C(=O)N1 (centres unmarked) [Example 189, 3-((3-fluoro-4-(4-(2-(4-(((5-fluoro-4-oxo-2-(((tetrahydro-2H-pyran-4-yl)thio)methyl)-3,4-dihydroquinazolin-7-yl)oxy)methyl)piperidin-1-yl)acetyl)piperazin-1-yl)phenyl)amino)piperidine-2,6-dione]	< 30
O=C1CCC(Nc2ccc(N3CCC(N4CCC(COc5cc(F)c6c(=O)[nH]c(CSC7CCOCC7)nc6c5)CC4)CC3)c(F)c2)C(=O)N1 (centres unmarked) [Example 113]	< 30
O=C1CCN(c2cncc3c(N4CCC(N5CCC(COc6cc(F)c7c(=O)[nH]c(CSC8CCOCC8)nc7c6)CC5)CC4)cccc23)C(=O)N1 [Example 162, 1-(8-(4-(((5-fluoro-4-oxo-2-(((tetrahydro-2H-pyran-4-yl)thio)methyl)-3,4-dihydroquinazolin-7-yl)oxy)methyl)-[1,4′-bipiperidin]-1′-yl)isoquinolin-4-yl)dihydropyrimidine-2,4(1H,3H)-dione]	< 30
O=C1CCC(Nc2ccc(N3CC4(CCC(N5CCC(COc6cc(F)c7c(=O)[nH]c(CSC8CCOCC8)nc7c6)CC5)CC4)C3)cc2)C(=O)N1 (centres unmarked) [Example 138]	< 30
O=C1CCC(Nc2ccc(NC3CC(CN4CCC(COc5cc(F)c6c(=O)[nH]c(CSC7CCOCC7)nc6c5)CC4)C3)c(F)c2)C(=O)N1 (centres unmarked) [Example 150, 3-((3-fluoro-4-((3-((4-(((5-fluoro-4-oxo-2-(((tetrahydro-2H-pyran-4-yl)thio)methyl)-3,4-dihydroquinazolin-7-yl)oxy)methyl)piperidin-1-yl)methyl)cyclobutyl)amino)phenyl)amino)piperidine-2,6-dione formate]	< 30
O=C1CCC(Nc2ccc(N3CCC(N4CC(N5CCC(COc6cc(F)c7c(=O)[nH]c(CSC8CCOCC8)nc7c6)CC5)C4)CC3)c(F)c2)C(=O)N1 (centres unmarked) [Example 116, 3-((3-fluoro-4-(4-(3-(4-(((5-fluoro-4-oxo-2-(((tetrahydro-2H-pyran-4-yl)thio)methyl)-3,4-dihydroquinazolin-7-yl)oxy)methyl)piperidin-1-yl)azetidin-1-yl)piperidin-1-yl)phenyl)amino)piperidine-2,6-dione]	< 30
O=C1CCC(Nc2ccc(N3CCN(CCN4CCC(COc5cc(F)c6c(=O)[nH]c(CC7CCCC7)nc6c5)CC4)CC3)c(F)c2)C(=O)N1 (centres unmarked) [Example 107, 3-((4-(4-(2-(4-(((2-(cyclopentylmethyl)-5-fluoro-4-oxo-3,4-dihydroquinazolin-7-yl)oxy)methyl)piperidin-1-yl)ethyl)piperazin-1-yl)-3-fluorophenyl)amino)piperidine-2,6-dione formate]	< 30
